The text below walks through data of US20060128662A1, “Novel compounds for treatment of obesity” (Novo Nordisk A/S, priority 2003, published 2006).

This test deals with FSK-4 cells. The experiment in a line: Assay (I): Glucose utilisation in a human epithelia cell line (FSK4 cells), D-(6-3H(N))-glucose. Type of test: cell-based. The settings on record: 24 hours incubation, Hill equation, read-out: GlucosFSK4 EC50. The method, then:
Assay (I): Glucose Utilisation in a Human Epithelia Cell Line (FSK4 cells)
The ^3H-proton will first be released in the TCA cyclus and transported to the respiratory chain where it will be incorporated into water. The water is thereafter separated from the D-(6-^3H(N))-glucose by evaporation.
FSK-4 cells obtained from ATCC (Maryland, USA), are cultured in growth medium (McCoy's medium with the following addition 100 units/ml penicillin and streptomycin and 10% FCS (fetal calf serum)) at 37° C. and 5% CO2.
The cells are then incubated for another 24 hours at 37° C. and 5% CO2.
The half maximal concentration (EC50) and maximal efficacy (Emax) are calculated using the Hill equation in GraphPad Prism 3.0 (GraphPad software, Inc.). […] From the percentage increase in glucose utilisation the linear slope is calculated using the Michaelis-Menten equation.
Regarding `CC(C)(C)c1cc(/C=C(\C#N)S(=O)(=O)c2ccc(C3CC=CO3)cc2)cc(C(C)(C)C)c1O` (stereo not drawn) [Example 49, 3-(3,5-Di-tert-butyl-4-hydroxy-phenyl)-2-[4-(2,3-dihydro-furan-2-yl)-benzenesulfonyl]-acrylonitrile], the EC50 worked out at 2200 nM. The value for `CC(C)(C)c1cc(/C=C(\C#N)S(=O)(=O)c2ccc(/C=C/c3ccccc3)cc2)cc(C(C)(C)C)c1O` [Example 51, 3-(3,5-Di-tert-butyl-4-hydroxy-phenyl)-2-(4-styryl-benzenesulfonyl)-acrylonitrile] was 900 nM; that for `CC(C)CO/C=C/c1ccc(S(=O)(=O)/C(C#N)=C/c2cc(C(C)(C)C)c(O)c(C(C)(C)C)c2)cc1` [Example 52, 3-(3,5-Di-tert-butyl-4-hydroxy-phenyl)-2-[4-(2-isobutoxy-vinyl)-benzenesulfonyl]-acrylonitrile] was 1000 nM.

As a reminder, the EC50 is the concentration giving half of the maximal effect.
